In patent US12458702B2 (NATIONAL TAIWAN UNIVERSITY, priority 2022, dated 2025):
Read-outs that look alike come from different tables or passages of the source.

Columns and labels:
HT-29 [1] = test system: HT-29
Protocol: (§2) Cancer cell lines were obtained from ATCC unless otherwise noted. HT-29 and HCT-116 cells were cultured in Dulbecco's Modified Eagle Medium (DMEM, Thermo Fisher Scientific) with 10% fetal bovine serum (FBS, Thermo Fisher Scientific) and 1% antibiotic-antimycotic (Thermo Fisher Scientific).
(§3) Briefly, CRC cells were seeded at a density of 5×10^3 cells/well in 96-well microtiter plates (100 μL/well), separated into two groups with or without GSH. After incubation for 24 hours, the culture medium was replaced by fresh medium (100 μL). […] After incubation, 10% cold trichloroacetic acid was gently added to each well and incubated at 4° C. for 1 h. The medium was removed, carefully washed with water, and dried at room temperature. […] The optical density (O.D.) was measured at 510 nm with Multi-Mode Microplate Reader (SpectraMax Paradigm, Beckman Coulter, U.S.). The fraction of cell survival was calculated as follows. Survival fraction=(OD treated−blank)/(OD control−blank). […] Each experiment was repeated three times.

[2] = test system: orthotopic CRC mice model; assay: Orthotopic AOM/DSS-induced CRC mice model, tumor area; assay type: in vivo, BALB/c mice; details: SN-38 series; i.v. once every two days for two weeks; 40 mg/kg vs irinotecan 40 mg/kg
Protocol: Azoxymethane (AOM)-induced murine CRC model was applied to model human CRC. BALB/c mice (6 weeks of age, male) were intraperitoneally (i.p.) injected once every two weeks with AOM (10 mg/kg body weight) or the PBS vehicle. Seven days after each AOM injection, 2% dextran sulfate sodium (DSS) was given in the drinking water for four days, followed by 3 days of regular water. This cycle was repeated three times. The mice were randomly divided into eight groups (n=5), on day 60 after the first AOM treatment. […] Tumor volumes and body weights were recorded at sacrifice. The tumors were counted under a dissecting microscope, and the area covered by tumors was measured by imaging software (AxioVision LE 4.8.2.0).

HT-29 [3] = assay: Cytotoxicity by SRB assay in HT-29 cells
Protocol: as §2, §3

HCT-116 = assay: Cytotoxicity by SRB assay in HCT-116 cells; assay type: cell-based, human
Protocol: (§1) The fraction of cell survival was calculated as follows. Survival fraction=(OD treated−blank)/(OD control−blank). […] Each experiment was repeated three times.

GLUT-1 = assay: 2-NBDG uptake assay in COS-7 cells that overexpress GLUT-1; assay type: cell-based; details: 50 μM and 100 μM
Protocol: COS-7 cells were seeded in 96-well culture plates and grown in low-glucose Dulbecco's Modified Eagle's medium supplemented with 10% fetal bovine serum and 2 mM L-glutamine for 24 h. After washing with Krebs Ringer bicarbonate buffer (KRB) (10 mM HEPES, 129 mM NaCl, 4.7 mM KCl, 2 mM CaCl2) and 1.2 mM MgSO4, 1.2 mM KH2PO4, 5 mM NaHCO3, pH 7.4), cells were incubated with the compounds to be tested in KRB containing 2-NBDG (200 μM) for 90 min at 37° C. in a 5% CO2 atmosphere, and then washed twice with KRB and lysed with lysis buffer (1% Nonidet P-40, 1% sodium deoxycholate, 40 mM KCl, and 20 mM Tris, pH 7.4). Finally, the lysates were transferred to black 96-well plates and fluorescence intensity was detected with a Multi-Mode Microplate Reader (SpectraMax Paradigm, Beckman Coulter, USA) using an excitation wavelength of 475 nm and an emission wavelength of 550 nm.

[4] = test system: CRC cell lines HCT-116 and HT-29; assay: Cytotoxicity against CRC cell lines, summary over both lines (SRB assay); assay type: cell-based, human; details: HCT-116 and HT-29, with or without GSH
Protocol: as §1

[5] = Homo sapiens, HT-29, 48 h, read-out: IC50 HT-29

| Compound | cytotoxicity in HT-29 cell line, in words (HT-29 [1]) | anti-tumor efficacy (tumor area), in words [2] | IC50 (HT-29 [3]; [5]) [µM] | IC50 (HCT-116; 48 h, prepared in DMSO, read-out: IC50 HCT-116) [µM] | IC50 (HCT-116; Homo sapiens, HCT-116, 48 h, 48 h, prepared in DMSO, read-out: IC50 HCT-116) [µM] | inhibition of GLUT-1 activity (2-NBDG uptake), in words (GLUT-1) | IC50 (HT-29 [3]; Homo sapiens, HT-29, 48 h, read-out: IC50 HT-29 5 mM GSH) [µM] | IC50 (HT-29 [3]; Homo sapiens, HT-29, 48 h, read-out: IC50 HT-29 w/o GSH) [µM] | IC50 (HT-29 [3]; read-out: IC50 HT-29 5 mM GSH, 48 h, prepared in DMA, 5 mM GSH) [µM] | IC50 (HT-29 [3]; read-out: IC50 HT-29 w/o GSH, 48 h, prepared in DMA, w/o GSH) [µM] | IC50 (HCT-116; Homo sapiens, HCT-116, read-out: IC50 HCT-116 5 mM GSH, 48 h, 5 mM GSH) [µM] | IC50 (HCT-116; Homo sapiens, HCT-116, read-out: IC50 HCT-116 5 mM GSH, 72 h, prepared in DMA, 5 mM GSH) [µM] | IC50 (HCT-116; Homo sapiens, HCT-116, 48 h, prepared in DMSO, read-out: IC50 HCT-116) [µM] | IC50 (HCT-116; Homo sapiens, HCT-116, 48 h, w/o GSH, read-out: IC50 HCT-116 w/o GSH) [µM] | IC50 (HCT-116; Homo sapiens, HCT-116, 72 h, prepared in DMA, w/o GSH, read-out: IC50 HCT-116 w/o GSH) [µM] | cytotoxicity against CRC cell lines, in words [4] |
| --- | --- | --- | --- | --- | --- | --- | --- | --- | --- | --- | --- | --- | --- | --- | --- | --- |
| CCc1c2c(nc3ccc(OCc4ccc(NC(=O)[C@H](CCCNC(N)=O)NC(=O)[C@@H](NC(=O)CCCCN5C(=O)CC(SCCOCCOCCOc6cc(O)c(C(=O)CCc7ccc(O)cc7)c(O[C@@H]7O[C@H](CO)[C@@H](O)[C@H](O)[C@H]7O)c6)C5=O)C(C)C)cc4)cc13)-c1cc3c(c(=O)n1C2)COC(=O)[C@]3(O)CC (some centres unmarked) [Compound 37] | less sensitive | ameliorated the tumor area | > 100 | 3.25 ± 0.42 | 3 to 7 |  |  |  |  |  |  |  |  |  |  |  |
| O=C(CCc1ccc(O)cc1)c1c(O)cc(OCCOCCOCCS)cc1O[C@@H]1O[C@H](CO)[C@@H](O)C(O)[C@H]1O (stereo partly drawn) [Compound 16, 1-(2-Hydroxy-4-(2-(2-(2-mercaptoethoxy)ethoxy)ethoxy)-6-(((2S,3R,5S,6R)-3,4,5-trihydroxy-6-(hydroxymethyl)tetrahydro-2H-pyran-2-yl)oxy)phenyl)-3-(4-hydroxyphenyl)propan-1-one] |  |  | > 100 |  |  | not able to inhibit GLUT-1 | > 100 | > 100 | > 100 | > 100 | > 100 | > 100 | > 100 | > 100 | > 100 | did not exhibit any inhibitory activity |
